Reference: US20190030053A1, “COMPOSITION FOR INCREASING EXPRESSION OF PGC-1alpha” (BENEBIOSIS CO., LTD., priority 2016, published 2019)

Columns and labels:
PGC-1α and related genes = assay: Gene expression in brain and hippocampus of Huntington's disease models; format: in vivo, mouse; settings: R6/2 mice, oral 0.1 mg/kg/day, 10 weeks
Text: In order to investigate the changes in gene expression and cognitive ability by the treatment with SL (3′-SL & 6′-SL) compositions in Huntington's brain disease model, 4-week-old mice were purchased from Central Lab Animal (Korea). Water was freely accessible, and a commercially available pellet feed (Dooyeul Biotech, Korea) was given for one week. At 5 weeks of age, the mice were divided into three groups (composed of eight mice for each group): Eight 5-week-old male c57/BL6 mice (normal mice; initial body weight, average 25.3±4.3 g) treated with a normal diet were used for a control group. […]
Sialyllactose or DW was orally administered daily. […] The dietary intake and body weight change were measured every 5 days. […]
The gene expression changes by the treatment with SL (3′-SL & 6′-SL) compositions were quantitatively compared in two main organs (brain and hippocampus) associated with bran diseases. RNA was extracted by TRIzol agent (Invitrogen). cDNA was synthesized by using RNA, which has been extracted as above and quantified, and a reverse transcription system (Promega, USA). The expression patterns of PGC-1α and related genes were measured by using pre-designed primers and probes (Applied Biosystems; PGC-1α, Mm00447181_m1, GAPDH, and Mm99999915_q1) for the synthesized cDNA and analysis targets (Fndc5, PGC-1α, Erra, UCP1, BDNF, SOD2, and GPX1). […]

telomerase = assay: Telomerase activity (TRAP) in vivo, aorta of arteriosclerosis models (ApoE−/−); design: species or system mouse; settings: ApoE−/− mice, high-fat diet, oral 0.1 mg/kg/day, 6 weeks
Text: In order to investigate the aging-related chronic disease preventing effect through the control of telomerase functions and DNA damage by the treatment with SL (3′-SL & 6′-SL) compositions in arteriosclerosis models, two types of 24-week-old male model mice (PGC-1α^+/+ApoE^−/−) were randomly grouped into three different dietary treatment groups (8 animals per group) below, and the diets were maintained for 6 weeks (a total of 24 animals): • Control group: Arteriosclerosis models fed with a high-fat diet (Rodent Diet with 60 kcal % fat) (8 animals) • 3′-SL administration group: Arteriosclerosis models treated with 3′-sialyllactose (3′-SL, Sigma) (oral administration of 0.1 mg per kg of mouse weight per day) in addition to the high-fat diet group (8 animals) • 6′-SL administration group: Arteriosclerosis models treated with 6′-sialyllactose (6′-SL, Sigma) (oral administration of 0.1 mg per kg of mouse weight per day) in addition to the high-fat diet group (8 animals)
In FIG. 20, the telomerase activity was measured using TRAP protocol (Wright et al., 1995). […] The fluorescence of the thus obtained TRAP product was measured using a fluorescent plate reader to quantify telomerase activity. Relative telomerase activity was normalized by the ratio of native […] to sulforhodamine (internal control standard), expressed as a percentage. […]

Structure (SMILES) | expression levels of PGC-1α and related genes vs SL non-administration (Huntington's disease model) group (PGC-1α and related genes) | telomerase activity in aorta sample (in vivo) (telomerase) | expression levels of PGC-1α and related genes vs normal control group (PGC-1α and related genes)
CC(=O)N[C@H]1[C@H]([C@H](O)[C@H](O)CO)O[C@@](O[C@H]2[C@@H](O)[C@@H](CO)O[C@@H](O[C@H]3[C@H](O)[C@@H](O)C(O)O[C@@H]3CO)[C@@H]2O)(C(=O)O)C[C@@H]1O (stereo partly drawn) [3′-SL, α-NeuNAc-(2→3)-β-D-Gal-(1→4)-D-Glc] | relatively low compared with 6′-SL | increased telomerase activity | –
CC(=O)N[C@H]1[C@H]([C@H](O)[C@H](O)CO)O[C@@](OC[C@H]2O[C@@H](O[C@H]3[C@H](O)[C@@H](O)[C@H](O)O[C@@H]3CO)[C@H](O)[C@@H](O)[C@H]2O)(C(=O)O)C[C@@H]1O [6′-SL, α-NeuNAc-(2→6)-β-D-Gal-(1→4)-D-Glc] | very excellent | increased telomerase activity | somewhat lower
